Data reported in PubChem BioAssay AID1963833 (Molecular Pharmacology Branch, DTP, NCI, 2024).

System: 883617-216-R-J1-PDC complex spheroid viability
Experiment: Anticancer human tumor 883617-216-R-J1-PDC patient-derived bladder carcinoma cell line growth inhibition [POLQ]
Details: for IC50: curve of first compound; for viability, T/C: stronger effect = lower value
Method in brief: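 PDC + HUVEC + MSC complex spheroids; POLQ inhibitors ± partner drugs; top conc. at/near clinical Cmax, else 10 microM (SN-38 1 microM), half-log dilutions; 37 degrees C, 5% CO2.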

[1] = second compound 0.0316 µM, first compound 0.0316 µM
[2] = second compound 0.0316 µM, first compound 0.1 µM
[3] = second compound 0.0316 µM, first compound 0.316 µM
[4] = second compound 0.0316 µM, first compound 1 µM
[5] = second compound 0.1 µM, first compound 0.0316 µM
[6] = second compound 0.1 µM, first compound 0.1 µM
[7] = second compound 0.1 µM, first compound 0.316 µM
[8] = second compound 0.1 µM, first compound 1 µM
[9] = second compound 0.316 µM, first compound 0.0316 µM
[10] = second compound 0.316 µM, first compound 0.1 µM
[11] = second compound 0.316 µM, first compound 0.316 µM
[12] = second compound 0.316 µM, first compound 1 µM
[13] = second compound 1 µM, first compound 0.0316 µM
[14] = second compound 1 µM, first compound 0.1 µM
[15] = second compound 1 µM, first compound 0.316 µM
[16] = second compound 1 µM, first compound 1 µM
[17] = second compound 3.16 µM, first compound 0.0316 µM
[18] = second compound 3.16 µM, first compound 0.1 µM
[19] = second compound 3.16 µM, first compound 0.316 µM
[20] = second compound 3.16 µM, first compound 1 µM
[21] = second compound 10 µM, first compound 0.0316 µM
[22] = second compound 10 µM, first compound 0.1 µM
[23] = second compound 10 µM, first compound 0.316 µM
[24] = second compound 10 µM, first compound 1 µM
[25] = second compound 0.0316 µM, first compound 3.16 µM
[26] = second compound 0.0316 µM, first compound 10 µM
[27] = second compound 0.1 µM, first compound 3.16 µM
[28] = second compound 0.1 µM, first compound 10 µM
[29] = second compound 0.316 µM, first compound 3.16 µM
[30] = second compound 0.316 µM, first compound 10 µM
[31] = second compound 1 µM, first compound 3.16 µM
[32] = second compound 1 µM, first compound 10 µM
[33] = second compound 3.16 µM, first compound 3.16 µM
[34] = second compound 3.16 µM, first compound 10 µM
[35] = second compound 10 µM, first compound 3.16 µM
[36] = second compound 10 µM, first compound 10 µM
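Also: spheroids exposed to compounds for seven days before readout.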
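For viability, T/C in this document: 100% = DMSO vehicle control viability.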

## CCc1c2c(nc3ccc(O)cc13)-c1cc3c(c(=O)n1C2)COC(=O)[C@]3(O)CC + Cc1cccc(N(C)C(=O)C2C(O)CCN2c2nc(C)cc(C(F)(F)F)c2C#N)c1
Second compound 0.0316 µM
  IC50: 101 nM
Second compound 0.1 µM
  IC50: 69.4 nM
Second compound 0.316 µM
  IC50: 84.7 nM
Second compound 1 µM
  IC50: 62.7 nM
Second compound 3.16 µM
  IC50: 59.9 nM
Second compound 10 µM
  IC50: 125 nM
Second compound 0.0316 µM, first compound 0.00316 µM
  viability, T/C: 59.4%
Second compound 0.0316 µM, first compound 0.01 µM
  viability, T/C: 58.6%
[1]
  viability, T/C: 52.8%
[2]
  viability, T/C: 52%
[3]
  viability, T/C: 34.2%
[4]
  viability, T/C: 21.2%
Second compound 0.1 µM, first compound 0.00316 µM
  viability, T/C: 71.4%
Second compound 0.1 µM, first compound 0.01 µM
  viability, T/C: 60.8%
[5]
  viability, T/C: 57.9%
[6]
  viability, T/C: 46.9%
[7]
  viability, T/C: 37.7%
[8]
  viability, T/C: 25%
Second compound 0.316 µM, first compound 0.00316 µM
  viability, T/C: 60.1%
Second compound 0.316 µM, first compound 0.01 µM
  viability, T/C: 66.2%
[9]
  viability, T/C: 55%
[10]
  viability, T/C: 49.6%
[11]
  viability, T/C: 32.6%
[12]
  viability, T/C: 17.6%
Second compound 1 µM, first compound 0.00316 µM
  viability, T/C: 65.1%
Second compound 1 µM, first compound 0.01 µM
  viability, T/C: 61.7%
[13]
  viability, T/C: 60.8%
[14]
  viability, T/C: 41.3%
[15]
  viability, T/C: 33.6%
[16]
  viability, T/C: 20.5%
Second compound 3.16 µM, first compound 0.00316 µM
  viability, T/C: 71.6%
Second compound 3.16 µM, first compound 0.01 µM
  viability, T/C: 59.7%
[17]
  viability, T/C: 54.8%
[18]
  viability, T/C: 45.3%
[19]
  viability, T/C: 40.6%
[20]
  viability, T/C: 22.4%
Second compound 10 µM, first compound 0.00316 µM
  viability, T/C: 79.8%
Second compound 10 µM, first compound 0.01 µM
  viability, T/C: 70.5%
[21]
  viability, T/C: 62.1%
[22]
  viability, T/C: 49.1%
[23]
  viability, T/C: 44.9%
[24]
  viability, T/C: 13.5%

## CNCc1ccc(-c2[nH]c3cc(F)cc4c3c2CCNC4=O)cc1 + Cc1cccc(N(C)C(=O)C2C(O)CCN2c2nc(C)cc(C(F)(F)F)c2C#N)c1
Second compound 0.0316 µM
  IC50: > 10000 nM
Second compound 0.1 µM
  IC50: > 10000 nM
Second compound 0.316 µM
  IC50: > 10000 nM
Second compound 1 µM
  IC50: > 10000 nM
Second compound 3.16 µM
  IC50: > 10000 nM
Second compound 10 µM
  IC50: > 10000 nM
[1]
  viability, T/C: 91.1%
[2]
  viability, T/C: 97.6%
[3]
  viability, T/C: 93%
[4]
  viability, T/C: 90.3%
[25]
  viability, T/C: 93.4%
[26]
  viability, T/C: 82.7%
[5]
  viability, T/C: 98.4%
[6]
  viability, T/C: 95.7%
[7]
  viability, T/C: 93.8%
[8]
  viability, T/C: 104%
[27]
  viability, T/C: 89%
[28]
  viability, T/C: 81.6%
[9]
  viability, T/C: 91.8%
[10]
  viability, T/C: 92%
[11]
  viability, T/C: 94.2%
[12]
  viability, T/C: 90.6%
[29]
  viability, T/C: 94.9%
[30]
  viability, T/C: 75.2%
[13]
  viability, T/C: 92.6%
[14]
  viability, T/C: 83.6%
[15]
  viability, T/C: 89.5%
[16]
  viability, T/C: 97.5%
[31]
  viability, T/C: 96.9%
[32]
  viability, T/C: 80.9%
[17]
  viability, T/C: 98.7%
[18]
  viability, T/C: 95.3%
[19]
  viability, T/C: 86.8%
[20]
  viability, T/C: 84.2%
[33]
  viability, T/C: 107%
[34]
  viability, T/C: 88.6%
[21]
  viability, T/C: 106%
[22]
  viability, T/C: 98.6%
[23]
  viability, T/C: 105%
[24]
  viability, T/C: 102%
[35]
  viability, T/C: 107%
[36]
  viability, T/C: 93.3%

## COc1ccc([C@@H](O)c2cc(-c3ncnc4cc(N5CCOCC5)ccc34)c(F)cc2Cl)nn1 + Cc1cccc(N(C)C(=O)C2C(O)CCN2c2nc(C)cc(C(F)(F)F)c2C#N)c1
Second compound 0.0316 µM
  IC50: 2680 nM
Second compound 0.1 µM
  IC50: 2210 nM
Second compound 0.316 µM
  IC50: 2510 nM
Second compound 1 µM
  IC50: 2530 nM
Second compound 3.16 µM
  IC50: 2480 nM
Second compound 10 µM
  IC50: 3570 nM
[1]
  viability, T/C: 90.4%
[2]
  viability, T/C: 105%
[3]
  viability, T/C: 76%
[4]
  viability, T/C: 75.5%
[25]
  viability, T/C: 42.4%
[26]
  viability, T/C: 36.9%
[5]
  viability, T/C: 98.3%
[6]
  viability, T/C: 84%
[7]
  viability, T/C: 85.8%
[8]
  viability, T/C: 67.9%
[27]
  viability, T/C: 41%
[28]
  viability, T/C: 31.4%
[9]
  viability, T/C: 99%
[10]
  viability, T/C: 101%
[11]
  viability, T/C: 86.3%
[12]
  viability, T/C: 71.6%
[29]
  viability, T/C: 43.5%
[30]
  viability, T/C: 33.4%
[13]
  viability, T/C: 100%
[14]
  viability, T/C: 98.3%
[15]
  viability, T/C: 81.9%
[16]
  viability, T/C: 63.4%
[31]
  viability, T/C: 48.4%
[32]
  viability, T/C: 32.8%
[17]
  viability, T/C: 107%
[18]
  viability, T/C: 99.8%
[19]
  viability, T/C: 90.4%
[20]
  viability, T/C: 61.4%
[33]
  viability, T/C: 49.7%
[34]
  viability, T/C: 33.8%
[21]
  viability, T/C: 117%
[22]
  viability, T/C: 92.5%
[23]
  viability, T/C: 90.5%
[24]
  viability, T/C: 65%
[35]
  viability, T/C: 52.3%
[36]
  viability, T/C: 35.6%

## Nc1ccn(C2OC(CO)C(O)C2(F)F)c(=O)n1 (stereo not drawn) + Cc1cccc(N(C)C(=O)C2C(O)CCN2c2nc(C)cc(C(F)(F)F)c2C#N)c1
Second compound 0.0316 µM
  IC50: < 31.6 nM
Second compound 0.1 µM
  IC50: < 31.6 nM
Second compound 0.316 µM
  IC50: < 31.6 nM
Second compound 1 µM
  IC50: < 31.6 nM
Second compound 3.16 µM
  IC50: < 31.6 nM
Second compound 10 µM
  IC50: < 31.6 nM
[1]
  viability, T/C: 35.8%
[2]
  viability, T/C: 33.2%
[3]
  viability, T/C: 41.2%
[4]
  viability, T/C: 41.4%
[25]
  viability, T/C: 33.5%
[26]
  viability, T/C: 31.1%
[5]
  viability, T/C: 28%
[6]
  viability, T/C: 45.6%
[7]
  viability, T/C: 31.8%
[8]
  viability, T/C: 38.2%
[27]
  viability, T/C: 36.9%
[28]
  viability, T/C: 24.6%
[9]
  viability, T/C: 30.1%
[10]
  viability, T/C: 31.9%
[11]
  viability, T/C: 34%
[12]
  viability, T/C: 38.5%
[29]
  viability, T/C: 31.6%
[30]
  viability, T/C: 35.5%
[13]
  viability, T/C: 32.5%
[14]
  viability, T/C: 27.6%
[15]
  viability, T/C: 33.8%
[16]
  viability, T/C: 36.5%
[31]
  viability, T/C: 39.3%
[32]
  viability, T/C: 34.7%
[17]
  viability, T/C: 35%
[18]
  viability, T/C: 28.4%
[19]
  viability, T/C: 41.2%
[20]
  viability, T/C: 39.8%
[33]
  viability, T/C: 40.9%
[34]
  viability, T/C: 27.4%
[21]
  viability, T/C: 37.9%
[22]
  viability, T/C: 35.5%
[23]
  viability, T/C: 39.2%
[24]
  viability, T/C: 39.2%
[35]
  viability, T/C: 39.1%
[36]
  viability, T/C: 31.7%
